Reference: the OligoGym collection
Where “and” joins values, the source holds several entries; their conditions need not be identical. Identical values can stand only once. After the bases stand the sugars from the 5' end (letter, count) and the backbone: PS all phosphorothioate, else s phosphorothioate and o phosphodiester by linkage. Methylation of C is not given here. e = 2'-O-(2-methoxyethyl) (MOE); k = constrained ethyl (cEt); d = 2'-deoxy (DNA)

Biological target: IRF4
Conditions: ASO

| Sequence | target mRNA inhibition (MM.1R, 1 µM) | target mRNA inhibition (SK-MEL-28, 4 µM) | further results |
| --- | --- | --- | --- |
| GACAGTGACTTGCATC (sugars kkdddddddddekeke, PS) | 30% |  |  |
| ACCAATTTATGCCATG (sugars k3 d10 k3, PS) |  | 17% |  |
| TAAATGAGTCGGTCAC (sugars k3 d10 k3, PS) |  | 76% and 65% |  |
| GCGCATCCCCTGGGCG (sugars k3 d10 k3, PS) |  | -4% |  |
| GCATTTTATCATCCGA (sugars kkkdddddddddkeke, PS) | 32% |  |  |
| TCCCAAGATCGAGCGG (sugars k3 d10 k3, PS) |  | 16% |  |
| TATTTGTTTGCAAGCT (sugars k3 d10 k3, PS) | 30% |  |  |
| TAACAGATAACGAGGT (sugars k3 d10 k3, PS) | 12% |  |  |
| GCTCGGAGCGACCCAA (sugars k3 d10 k3, PS) |  | 8% |  |
| GAGGAAGCATAGAACA (sugars k3 d10 k3, PS) |  | 18% |  |
| AAGCTTGATAAAGGCT (sugars e1 k2 d9 k2 e2, PS) | -1% |  |  |
| AGACAAATCTTCTGCC (sugars k3 d10 k3, PS) |  | -4% |  |
| GACACTTTTAGAGAGG (sugars e1 k2 d9 k2 e2, PS) | 24% |  |  |
| TCTAATGGTGCTCCTA (sugars k3 d10 k3, PS) |  | 51% |  |
| ACGCAAGGCTCGGAGC (sugars k3 d10 k3, PS) |  | 21% |  |
| TCACTATTAAACAGCA (sugars k3 d10 k3, PS) |  | 16% |  |
| CTGTTACCGATGCTTC (sugars kkdddddddddkekek, PS) | 52% and 44% |  |  |
| AGGTAAATCTTCACTG (sugars k3 d10 k3, PS) |  | 54% |  |
| ATACATTCACACTGCC (sugars k3 d10 k3, PS) |  | 45% |  |
| CGTGTGCTTGCCAAGC (sugars kddddddddddkekek, PS) | 30% and 32% |  |  |
| TGGAACTCATAGGTGT (sugars k3 d10 k3, PS) |  | 62% |  |
| GTGACTGGAGAGCAAT (sugars k3 d10 k3, PS) |  | 74% |  |
| TATAACCGGTAGAGTG (sugars k3 d10 k3, PS) |  | 21% |  |
| AACTCTCCTGTTTTCG (sugars k3 d10 k3, PS) |  | 42% |  |
| GTGATGTCAGGTTTTC (sugars kdddddddddkekeke, PS) | 30% |  |  |
| ATAAGATCCCACGAAG (sugars k3 d10 k3, PS) |  | -42% |  |

| Sequence | target mRNA inhibition (MM.1R, 1 µM) | target mRNA inhibition (SK-MEL-28, 4 µM) | further results |
| --- | --- | --- | --- |
| TGAGATATTCCTCTCA (sugars k3 d10 k3, PS) | 18% |  |  |
| CTGCTTGAGGTTTTCC (sugars e1 k2 d9 k2 e2, PS) | 52% |  | target mRNA inhibition (MM.1R, 0.074 µM): 6%; target mRNA inhibition (MM.1R, 0.222 µM): 21%; target mRNA inhibition (MM.1R, 0.666 µM): 38%; target mRNA inhibition (MM.1R, 2 µM): 60% |
| GCCAACTTATAGCACT (sugars k3 d10 k3, PS) |  |  | target mRNA inhibition (MM.1R, 0.0625 µM): 17%; target mRNA inhibition (MM.1R, 0.25 µM): -17%; target mRNA inhibition (MM.1R, 4 µM): 8% |
| ATTTTATGGACCACGC (sugars k3 d10 k3, PS) |  | 49% |  |
| AAAAGTAACTGACACG (sugars k3 d10 k3, PS) |  | 61% |  |
| TAGCAGAGGTTCTACC (sugars k3 d10 k3, PS) |  | 26% |  |
| AATTTTCACAGTGATC (sugars k3 d10 k3, PS) |  | 34% |  |
| GGCTATCAGGATCTCA (sugars k3 d10 k3, PS) |  | 45% |  |
| GGAAATTCAAGCTTTC (sugars k3 d10 k3, PS) |  | 64% |  |
| GCCACCGACTCTTTTT (sugars k3 d10 k3, PS) | -5% |  |  |
| GACGAAAACAGCCGCC (sugars k3 d10 k3, PS) |  | 62% |  |
| AGTGACTTGCATCCAT (sugars kdddddddddkekeke, PS) | 8% |  |  |
| GTCATATGGCTAAACC (sugars k3 d10 k3, PS) | 23% |  |  |
| GAACACACCAGGTTAA (sugars k3 d10 k3, PS) |  | -2% |  |
| ATAGTTGTCTGGCTAG (sugars k3 d10 k3, PS) |  | 52% |  |
| ACGATGATAGCTCACC (sugars k3 d10 k3, PS) |  | 8% |  |
| TCCGGGTGTGGCTGAT (sugars k3 d10 k3, PS) | 26% |  |  |
| CTGCATTTGCAAATAA (sugars k3 d10 k3, PS) |  | -21% |  |
| ACCTTATGCTTGGCTC (sugars k3 d10 k3, PS) |  | 31% |  |
| AGTGATGAGATATTCC (sugars k3 d10 k3, PS) |  | 59% |  |
| GTGCAGGAGAGGCTGA (sugars k3 d10 k3, PS) |  | 32% |  |
| TCCAACCCTAGATAAC (sugars k3 d10 k3, PS) | -5% |  |  |
| AGTGTCTAAAGTCCCA (sugars kdddddddddkekeke, PS) | -12% and 12% |  |  |
| CACTATTAAGAACTTG (sugars k3 d10 k3, PS) |  | 33% |  |
| GTCTCTACCTACTCCA (sugars k3 d10 k3, PS) |  | 41% |  |
| GTAGTATGAGAAACGG (sugars kkkddddddddkekek, PS) | 43% |  |  |

| Sequence | target mRNA inhibition (MM.1R, 1 µM) | target mRNA inhibition (SK-MEL-28, 4 µM) | further results |
| --- | --- | --- | --- |
| GATCACTCAGAATTTT (sugars k3 d10 k3, PS) |  | 50% |  |
| ATCTGAATTGTTACTA (sugars k3 d10 k3, PS) |  | 12% |  |
| TTAATTATGCAGAAGC (sugars k3 d10 k3, PS) |  | 13% |  |
| ACAATACTGTAAGGGC (sugars k3 d10 k3, PS) |  | 75% and 68% |  |
| GAAGGATGATCAGCTT (sugars k3 d10 k3, PS) |  | 26% |  |
| CCTCAAAGTCATTGCT (sugars k3 d10 k3, PS) |  | 21% |  |
| AGCTTGATAAAGGCTG (sugars kkkdddddddddkeke, PS) | -8% |  |  |
| CTCTACTGGAGTCAAG (sugars k3 d10 k3, PS) |  | 25% |  |
| TGGTAACTGTATGGAA (sugars k3 d10 k3, PS) |  | 48% |  |
| CACCAGGAAACCGCTG (sugars k3 d10 k3, PS) |  | 15% |  |
| ACACAAGTGGCCTTCC (sugars k3 d10 k3, PS) |  | 31% |  |
| TGTGCTTGCCAAGCCT (sugars kddddddddddkekek, PS) | -1% and 3% |  |  |
| AGTTGTAAATGAGTCG (sugars kkkddddddddkekek, PS) | 61% |  | target mRNA inhibition (MM.1R, 0.074 µM): 18%; target mRNA inhibition (MM.1R, 0.222 µM): 46%; target mRNA inhibition (MM.1R, 0.666 µM): 49%; target mRNA inhibition (MM.1R, 2 µM): 73% |
| GCTCCACAGCAAGGCC (sugars k3 d10 k3, PS) |  | 58% |  |
| CAAAAATGTCCCATCC (sugars k3 d10 k3, PS) |  | 19% |  |
| GAGTTGTACAGGACAG (sugars k3 d10 k3, PS) | 51% and 52% |  |  |
| TCACAGGTAAGGGCCC (sugars k3 d10 k3, PS) |  | 47% |  |
| GTGATGTCAGGTTTTC (sugars k3 d9 k3 e1, PS) | 71% |  | target mRNA inhibition (MM.1R, 0.074 µM): 16%; target mRNA inhibition (MM.1R, 0.222 µM): 41%; target mRNA inhibition (MM.1R, 0.666 µM): 66%; target mRNA inhibition (MM.1R, 2 µM): 85% |
| AGAGGTGCCTTCTTTA (sugars k3 d10 k3, PS) | 18% |  |  |
| TCATTAGAAAGCCCTC (sugars k3 d10 k3, PS) | -19% |  |  |
| CAAATTCCCGGAGGAA (sugars k3 d10 k3, PS) |  | 5% |  |
| AAGCTTGATAAAGGCT (sugars kkdddddddddkekek, PS) | -19% |  |  |
| AAGCATCCTTTCCTAC (sugars k3 d10 k3, PS) |  | 35% |  |
| GGTAAACTGCCTTAGG (sugars k3 d10 k3, PS) |  | 25% |  |
| AGTTCATGTAAAGTCT (sugars kkdddddddddekeke, PS) | 51% and 49% |  |  |
| ACTCACTAAAGACTAT (sugars k3 d10 k3, PS) |  | 18% |  |

| Sequence | target mRNA inhibition (MM.1R, 1 µM) | target mRNA inhibition (SK-MEL-28, 4 µM) | further results |
| --- | --- | --- | --- |
| AATGTGTATTACTCTT (sugars kddddddddddkekek, PS) | 24% and 29% |  |  |
| AAATATCGCCCATGAG (sugars k3 d10 k3, PS) |  | 39% |  |
| CACAAGCAGTGATGTC (sugars k3 d10 k3, PS) |  | 60% |  |
| CACATAACTCAGGCAA (sugars k3 d10 k3, PS) |  | 37% |  |
| GAAAAGAGCCGCCACA (sugars k3 d10 k3, PS) |  | 7% |  |
| AGAGTGGTACACCTCT (sugars k3 d10 k3, PS) |  | 22% |  |
| AGTAAACTTGGCTGTG (sugars k3 d10 k3, PS) |  | 38% |  |
| GCTGAGATAGGAAGCA (sugars k3 d10 k3, PS) |  | 19% |  |
| CAAGTGTCTAAAGTCC (sugars kdddddddddkekeke, PS) | 11% and 10% |  |  |
| TCTTGAATAGAGGAAT (sugars k3 d10 k3, PS) |  | 42% |  |
| GCCGAACTCTCCGCCT (sugars k3 d10 k3, PS) |  | 51% |  |
| AGTGGAGGTCTTTGGG (sugars k3 d10 k3, PS) |  | 55% |  |
| CAAGTAATTTTAAGGC (sugars k3 d10 k3, PS) |  | 41% |  |
| CCTCAGTTTGTGAAGC (sugars k3 d9 k3 e1, PS) | 2% |  |  |
| GGCGACGACAGCTGCG (sugars k3 d10 k3, PS) | -15% |  |  |
| GGCAAGCTGAATGCTC (sugars k3 d10 k3, PS) |  | 29% |  |
| TGTGATAGCTGAGCTG (sugars kkdddddddddekeke, PS) | 41% |  |  |
| AGCAGTGATGTCAGGT (sugars kkdddddddddekeke, PS) | 72% and 70% and 69% |  | target mRNA inhibition (MM.1R, 0.0625 µM): 32%; target mRNA inhibition (MM.1R, 0.25 µM): 54%; target mRNA inhibition (MM.1R, 4 µM): 86% |
| GACCACGCCCCTCTCC (sugars k3 d10 k3, PS) |  | 55% |  |
| GCCCATGTGAGCTCTT (sugars k3 d10 k3, PS) |  | 50% |  |
| GCGACTGCTGAAAACC (sugars k3 d10 k3, PS) | -4% |  |  |
| GAGAGTAAACTTGGCT (sugars k3 d10 k3, PS) | 12% |  |  |
| ATCACGAGGTTGCCGA (sugars k3 d10 k3, PS) |  | 60% |  |
| GCATTTTATCATCCGA (sugars kddddddddddkekek, PS) | 21% |  |  |
| AAGCCTAGAGGTGCCT (sugars k3 d10 k3, PS) | 29% |  |  |
